Each block holds one compound with its values, some of them ahead of it. Non-standard residues stand in square brackets, D forms with d. Residues, ends and D or L forms follow the SMILES beside them. pT = C[C@@H](OP(=O)(O)O)[C@H](N)C(=O)O
How the values were obtained:
PBD = conditions: read-out: Kd for the PBD; ref [19]; cited from earlier work
HeLa-H2B-GFP cells [1] = assay: Aberrant prometaphase/metaphase analysis after QQ transfection; assay type: cell-based; conditions: for aberrant prometaphase/metaphase cells: controls <10%
PLK1 = conditions: ref [38]; cited from earlier work
HeLa cells = assay: Annexin V – Propidium Iodide flow cytometry cell death assay; assay type: cell-based
HeLa-H2B-GFP cells [2] = assay: Immunofluorescence of PLK1 centrosomal localization after QQ transfection; conditions: for fluorescence intensity of PLK1 staining at centrosomes: PBS control 51.2, QQ control 49.2
PLK3 PBD (335–646) = molecular target: T1, PLK3 PBD (335–646) (Homo sapiens, UniProt Q9H4B4); assay: Fluorescence polarization competitive binding assay, PLK3 PBD
T1 sequence (Q9H4B4 335-646): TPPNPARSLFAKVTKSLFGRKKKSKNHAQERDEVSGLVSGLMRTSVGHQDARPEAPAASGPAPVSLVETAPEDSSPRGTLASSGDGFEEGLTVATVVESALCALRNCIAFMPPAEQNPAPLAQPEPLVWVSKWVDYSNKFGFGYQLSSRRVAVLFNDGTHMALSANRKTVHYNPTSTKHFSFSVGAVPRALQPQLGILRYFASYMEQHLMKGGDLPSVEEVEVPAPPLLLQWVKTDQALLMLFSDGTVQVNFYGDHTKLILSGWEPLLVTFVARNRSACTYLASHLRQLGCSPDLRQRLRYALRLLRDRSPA

Compound: LHSpTAI
Kd (PBD): 0.25 µM

Compound: O=c1c(O)cccc2cc(O)c(O)c(O)c12 [PPG, purpurogalin, reference compound]
induction of aberrant mitoses in words (HeLa-H2B-GFP cells [1]; data not shown): very few aberrant mitoses
inhibition of PLK1 catalytic activity in vitro (PLK1): neither PPG nor Poloxin inhibit PLK1 catalytic activity

Compound: CC(C)C[C@H](NC(=O)CNC(=O)[C@H](CC(N)=O)NC(=O)[C@@H]1CCCN1C(=O)[C@@H](NC(=O)[C@H](CO)NC(=O)[C@H](CS)NC(=O)[C@H](CC(C)C)NC(=O)[C@@H](N)CC(C)C)[C@@H](C)OP(=O)(O)O)C(=O)O [compound 292, LLCS[pT]PNGL] (H-LLCS[pT]PNGL-OH)
aberrant prometaphase/metaphase cells (HeLa-H2B-GFP cells [1]; 30 µM dose): 25%
induction of apoptosis in words (HeLa cells; 30 µM, relative to the controls): did not induce significant levels of apoptosis
fluorescence intensity of PLK1 staining at centrosomes (HeLa-H2B-GFP cells [2]; concentration not given): 45 arbitrary fluorescence units

Compound: CC(=O)N1CCC[C@H]1C(=O)N[C@@H](CC(C)C)C(=O)N[C@@H](Cc1c[nH]cn1)C(=O)N[C@@H](CO)C(=O)N[C@H](C(=O)N[C@@H](C)C(=O)O)[C@@H](C)OP(=O)(O)O [compound 5743, Ac-PLHS[pT]A] (Ac-PLHS[pT]A-OH)
inhibition at 600 µM (PLK3 PBD (335–646); read-out: inhibition of PLK3 PBD binding): 31%
aberrant prometaphase/metaphase cells (HeLa-H2B-GFP cells [1]; 10 µM dose): 32%
aberrant prometaphase/metaphase cells (HeLa-H2B-GFP cells [1]; 30 µM dose): 40.3%
Aberrant mitoses, @ 24hr, 30 µM (HeLa-H2B-GFP cells [1]; HeLa-H2B-GFP cells, QQ transfected, 24 hr, 30 µM): 40.3%
decrease in percentage of viable cells (HeLa cells; 30 µM, 24 hours post-treatment): 30%
Apoptosis @ 24hr, 30 µM (HeLa cells; HeLa cells, QQ transfected, 24 hr): 34.0%
statistical significance of decrease in PLK1 centrosomal fluorescent intensity (HeLa-H2B-GFP cells [2]): Statistically significant decreases
fluorescence intensity of PLK1 staining at centrosomes (HeLa-H2B-GFP cells [2]; 30 μM): 33 arbitrary fluorescence units

IC50 (PLK3 PBD (335–646)): 6.5 µM
Compound: CC(C)C[C@H](NC(=O)[C@@H]1CCCN1C(=O)CN)C(=O)N[C@@H](C)C(=O)N[C@H](C(=O)N[C@@H](CO)C(=O)N[C@H](C(=O)N1CCC[C@H]1C(=O)N[C@@H](CCCCN)C(=O)N[C@@H](CC(N)=O)C(=O)NCC(=O)O)[C@@H](C)OP(=O)(O)O)[C@@H](C)O [PLK3 ligand, GPLATS[pT]PKNG, reference compound] (H-GPLATS[pT]PKNG-OH)

Reference: PMC3711794 (Molecular cancer therapeutics, 2012)
